# Results published in PubChem BioAssay AID2060882 (Molecular Pharmacology Branch, DTP, NCI, 2025).
# Test system: 898857-211-R-J1-PDC complex spheroids, growth % test/control
# Assay: Anticancer human tumor 898857-211-R-J1-PDC patient-derived melanoma cell line growth inhibition [RAS]
# Conditions: for IC50: curve of first compound; for viability, T/C: stronger effect = lower value
# Procedure, shortened: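 Agents were tested in combination matrices in half-log decrements from a top concentration at or near clinical Cmax (10 microM if undetermined). Targets were multi-cell spheroids of tumour lines plus HUVEC and MSC stromal cells.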
# [1] = second compound 0.000949 µM, first compound 0.0316 µM
# [2] = second compound 0.000949 µM, first compound 0.1 µM
# [3] = second compound 0.000949 µM, first compound 0.316 µM
# [4] = second compound 0.000949 µM, first compound 1 µM
# [5] = second compound 0.003 µM, first compound 0.0316 µM
# [6] = second compound 0.003 µM, first compound 0.1 µM
# [7] = second compound 0.003 µM, first compound 0.316 µM
# [8] = second compound 0.003 µM, first compound 1 µM
# [9] = second compound 0.00949 µM, first compound 0.0316 µM
# [10] = second compound 0.00949 µM, first compound 0.1 µM
# [11] = second compound 0.00949 µM, first compound 0.316 µM
# [12] = second compound 0.00949 µM, first compound 1 µM
# [13] = second compound 0.03 µM, first compound 0.0316 µM
# [14] = second compound 0.03 µM, first compound 0.1 µM
# [15] = second compound 0.03 µM, first compound 0.316 µM
# [16] = second compound 0.03 µM, first compound 1 µM
# [17] = second compound 0.0949 µM, first compound 0.0316 µM
# [18] = second compound 0.0949 µM, first compound 0.1 µM
# [19] = second compound 0.0949 µM, first compound 0.316 µM
# [20] = second compound 0.0949 µM, first compound 1 µM
# [21] = second compound 0.3 µM, first compound 0.0316 µM
# [22] = second compound 0.3 µM, first compound 0.1 µM
# [23] = second compound 0.3 µM, first compound 0.316 µM
# [24] = second compound 0.3 µM, first compound 1 µM
# 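Note: spheroids exposed to compound for seven days before readout.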
# 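Throughout, for viability, T/C: 100% = DMSO vehicle control wells.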
smiles,measurement,setting,value
CC(=O)OC12COC1CC(O)C1(C)C(=O)C(O)C3=C(C)C(OC(=O)C(O)C(NC(=O)OC(C)(C)C)c4ccccc4)CC(O)(C(OC(=O)c4ccccc4)C21)C3(C)C (stereo unspecified) + CCn1c(-c2cc(N3CCN(C)CC3)cnc2C(C)OC)c2c3cc(ccc31)-c1csc(n1)CC(NC(=O)C1CC1C)C(=O)N1CCCC(N1)C(=O)OCC(C)(C)C2,IC50,second compound 0.000949 µM,< 31.6 nM
same,IC50,second compound 0.003 µM,< 31.6 nM
same,IC50,second compound 0.00949 µM,< 31.6 nM
same,IC50,second compound 0.03 µM,< 31.6 nM
same,IC50,second compound 0.0949 µM,< 31.6 nM
same,IC50,second compound 0.3 µM,< 31.6 nM
same,"viability, T/C",[1],11.2%
same,"viability, T/C",[2],9.4%
same,"viability, T/C",[3],9.05%
same,"viability, T/C",[4],13.3%
same,"viability, T/C","second compound 0.000949 µM, first compound 3.16 µM",13.9%
same,"viability, T/C","second compound 0.000949 µM, first compound 10 µM",14.7%
same,"viability, T/C",[5],11.4%
same,"viability, T/C",[6],12.9%
same,"viability, T/C",[7],9.53%
same,"viability, T/C",[8],12.5%
same,"viability, T/C","second compound 0.003 µM, first compound 3.16 µM",12.7%
same,"viability, T/C","second compound 0.003 µM, first compound 10 µM",12.8%
same,"viability, T/C",[9],10.9%
same,"viability, T/C",[10],11.4%
same,"viability, T/C",[11],13%
same,"viability, T/C",[12],12.4%
same,"viability, T/C","second compound 0.00949 µM, first compound 3.16 µM",14.6%
same,"viability, T/C","second compound 0.00949 µM, first compound 10 µM",14.2%
same,"viability, T/C",[13],10.9%
same,"viability, T/C",[14],10.7%
same,"viability, T/C",[15],13.3%
same,"viability, T/C",[16],12.9%
same,"viability, T/C","second compound 0.03 µM, first compound 3.16 µM",15.6%
same,"viability, T/C","second compound 0.03 µM, first compound 10 µM",14.6%
same,"viability, T/C",[17],12.1%
same,"viability, T/C",[18],12.2%
same,"viability, T/C",[19],12.3%
same,"viability, T/C",[20],14.4%
same,"viability, T/C","second compound 0.0949 µM, first compound 3.16 µM",14.4%
same,"viability, T/C","second compound 0.0949 µM, first compound 10 µM",15.4%
same,"viability, T/C",[21],12.9%
same,"viability, T/C",[22],11.9%
same,"viability, T/C",[23],11.8%
same,"viability, T/C",[24],15.8%
same,"viability, T/C","second compound 0.3 µM, first compound 3.16 µM",14.9%
same,"viability, T/C","second compound 0.3 µM, first compound 10 µM",18.7%
CCc1c2c(nc3ccc(O)cc13)-c1cc3c(c(=O)n1C2)COC(=O)[C@]3(O)CC + CCn1c(-c2cc(N3CCN(C)CC3)cnc2C(C)OC)c2c3cc(ccc31)-c1csc(n1)CC(NC(=O)C1CC1C)C(=O)N1CCCC(N1)C(=O)OCC(C)(C)C2,IC50,second compound 0.000949 µM,3.72 nM
same,IC50,second compound 0.003 µM,3.54 nM
same,IC50,second compound 0.00949 µM,3.37 nM
same,IC50,second compound 0.03 µM,3.84 nM
same,IC50,second compound 0.0949 µM,3.78 nM
same,IC50,second compound 0.3 µM,3.6 nM
same,"viability, T/C","second compound 0.000949 µM, first compound 0.000949 µM",78.6%
same,"viability, T/C","second compound 0.000949 µM, first compound 0.003 µM",55.3%
same,"viability, T/C","second compound 0.000949 µM, first compound 0.00949 µM",25.9%
same,"viability, T/C","second compound 0.000949 µM, first compound 0.03 µM",8.36%
same,"viability, T/C","second compound 0.000949 µM, first compound 0.0949 µM",6.43%
same,"viability, T/C","second compound 0.000949 µM, first compound 0.3 µM",6.55%
same,"viability, T/C","second compound 0.003 µM, first compound 0.000949 µM",79.7%
same,"viability, T/C","second compound 0.003 µM, first compound 0.003 µM",53.8%
same,"viability, T/C","second compound 0.003 µM, first compound 0.00949 µM",25.5%
same,"viability, T/C","second compound 0.003 µM, first compound 0.03 µM",8.25%
same,"viability, T/C","second compound 0.003 µM, first compound 0.0949 µM",8.03%
same,"viability, T/C","second compound 0.003 µM, first compound 0.3 µM",5.94%
same,"viability, T/C","second compound 0.00949 µM, first compound 0.000949 µM",82.9%
same,"viability, T/C","second compound 0.00949 µM, first compound 0.003 µM",52.6%
same,"viability, T/C","second compound 0.00949 µM, first compound 0.00949 µM",24.3%
same,"viability, T/C","second compound 0.00949 µM, first compound 0.03 µM",9.47%
same,"viability, T/C","second compound 0.00949 µM, first compound 0.0949 µM",7.12%
same,"viability, T/C","second compound 0.00949 µM, first compound 0.3 µM",7.62%
same,"viability, T/C","second compound 0.03 µM, first compound 0.000949 µM",79.3%
same,"viability, T/C","second compound 0.03 µM, first compound 0.003 µM",56.2%
same,"viability, T/C","second compound 0.03 µM, first compound 0.00949 µM",27%
same,"viability, T/C","second compound 0.03 µM, first compound 0.03 µM",9.94%
same,"viability, T/C","second compound 0.03 µM, first compound 0.0949 µM",7.45%
same,"viability, T/C","second compound 0.03 µM, first compound 0.3 µM",5.98%
same,"viability, T/C","second compound 0.0949 µM, first compound 0.000949 µM",86.1%
same,"viability, T/C","second compound 0.0949 µM, first compound 0.003 µM",55.3%
same,"viability, T/C","second compound 0.0949 µM, first compound 0.00949 µM",28%
same,"viability, T/C","second compound 0.0949 µM, first compound 0.03 µM",9.13%
same,"viability, T/C","second compound 0.0949 µM, first compound 0.0949 µM",7.78%
same,"viability, T/C","second compound 0.0949 µM, first compound 0.3 µM",6.37%
same,"viability, T/C","second compound 0.3 µM, first compound 0.000949 µM",87.5%
same,"viability, T/C","second compound 0.3 µM, first compound 0.003 µM",55.5%
same,"viability, T/C","second compound 0.3 µM, first compound 0.00949 µM",20.6%
same,"viability, T/C","second compound 0.3 µM, first compound 0.03 µM",9.8%
same,"viability, T/C","second compound 0.3 µM, first compound 0.0949 µM",7.03%
same,"viability, T/C","second compound 0.3 µM, first compound 0.3 µM",7.37%
Nc1ccn(C2OC(CO)C(O)C2(F)F)c(=O)n1 (stereo unspecified) + CCn1c(-c2cc(N3CCN(C)CC3)cnc2C(C)OC)c2c3cc(ccc31)-c1csc(n1)CC(NC(=O)C1CC1C)C(=O)N1CCCC(N1)C(=O)OCC(C)(C)C2,IC50,second compound 0.000949 µM,5.06 nM
same,IC50,second compound 0.003 µM,4.37 nM
same,IC50,second compound 0.00949 µM,4.35 nM
same,IC50,second compound 0.03 µM,5.4 nM
same,IC50,second compound 0.0949 µM,5.47 nM
same,IC50,second compound 0.3 µM,6.69 nM
same,"viability, T/C","second compound 0.000949 µM, first compound 0.00316 µM",74%
same,"viability, T/C","second compound 0.000949 µM, first compound 0.01 µM",15.3%
same,"viability, T/C",[1],4.42%
same,"viability, T/C",[2],3.83%
same,"viability, T/C",[3],4.13%
same,"viability, T/C",[4],5.1%
same,"viability, T/C","second compound 0.003 µM, first compound 0.00316 µM",64.6%
same,"viability, T/C","second compound 0.003 µM, first compound 0.01 µM",13.1%
same,"viability, T/C",[5],4.34%
same,"viability, T/C",[6],4.05%
same,"viability, T/C",[7],5.71%
same,"viability, T/C",[8],4.93%
same,"viability, T/C","second compound 0.00949 µM, first compound 0.00316 µM",63.7%
same,"viability, T/C","second compound 0.00949 µM, first compound 0.01 µM",14.4%
same,"viability, T/C",[9],4.77%
same,"viability, T/C",[10],4.27%
same,"viability, T/C",[11],4.44%
same,"viability, T/C",[12],4.67%
same,"viability, T/C","second compound 0.03 µM, first compound 0.00316 µM",78%
same,"viability, T/C","second compound 0.03 µM, first compound 0.01 µM",18%
same,"viability, T/C",[13],4.69%
same,"viability, T/C",[14],3.93%
same,"viability, T/C",[15],5.09%
same,"viability, T/C",[16],5.74%
same,"viability, T/C","second compound 0.0949 µM, first compound 0.00316 µM",72%
same,"viability, T/C","second compound 0.0949 µM, first compound 0.01 µM",25.8%
same,"viability, T/C",[17],4.97%
same,"viability, T/C",[18],4.59%
same,"viability, T/C",[19],5.07%
same,"viability, T/C",[20],4.89%
same,"viability, T/C","second compound 0.3 µM, first compound 0.00316 µM",88.6%
same,"viability, T/C","second compound 0.3 µM, first compound 0.01 µM",29.3%
same,"viability, T/C",[21],5.64%
same,"viability, T/C",[22],3.79%
same,"viability, T/C",[23],4.58%
same,"viability, T/C",[24],4.96%
